We go through 5 molecules from patent US9340590B2 (priority 2011, dated 2016).

Holding throughout (assay): cell-based
The target of one test is hNav1.7 (Homo sapiens, UniProt Q15858). Type of test: cell-based.
For the next test, the target named is hNav1.5 (Homo sapiens, UniProt Q14524). Conditions: IonWorks Quattro, read-out: IWQ Use Nav1.5. (Patch clamp records ionic current or voltage across a cell membrane.)
For another test, the target named is hNav1.3 (Homo sapiens, UniProt Q9NY46). Conditions: IonWorks Quattro, read-out: IWQ Use Nav1.3.
Setting [1] is: IonWorks Quattro, use-dependent block, hNav1.7, read-out: IWQ Use Nav1.7.

Read-outs that look alike come from different tables or passages of the source. Positions of bridges follow the written chain, without caps; N, C: chain ends. Residues, ends and D or L forms follow the SMILES beside them. A value given as a limit tells only on which side of the number the result lay.

Sequence of hNav1.7 (Q15858 whole entry, looked up): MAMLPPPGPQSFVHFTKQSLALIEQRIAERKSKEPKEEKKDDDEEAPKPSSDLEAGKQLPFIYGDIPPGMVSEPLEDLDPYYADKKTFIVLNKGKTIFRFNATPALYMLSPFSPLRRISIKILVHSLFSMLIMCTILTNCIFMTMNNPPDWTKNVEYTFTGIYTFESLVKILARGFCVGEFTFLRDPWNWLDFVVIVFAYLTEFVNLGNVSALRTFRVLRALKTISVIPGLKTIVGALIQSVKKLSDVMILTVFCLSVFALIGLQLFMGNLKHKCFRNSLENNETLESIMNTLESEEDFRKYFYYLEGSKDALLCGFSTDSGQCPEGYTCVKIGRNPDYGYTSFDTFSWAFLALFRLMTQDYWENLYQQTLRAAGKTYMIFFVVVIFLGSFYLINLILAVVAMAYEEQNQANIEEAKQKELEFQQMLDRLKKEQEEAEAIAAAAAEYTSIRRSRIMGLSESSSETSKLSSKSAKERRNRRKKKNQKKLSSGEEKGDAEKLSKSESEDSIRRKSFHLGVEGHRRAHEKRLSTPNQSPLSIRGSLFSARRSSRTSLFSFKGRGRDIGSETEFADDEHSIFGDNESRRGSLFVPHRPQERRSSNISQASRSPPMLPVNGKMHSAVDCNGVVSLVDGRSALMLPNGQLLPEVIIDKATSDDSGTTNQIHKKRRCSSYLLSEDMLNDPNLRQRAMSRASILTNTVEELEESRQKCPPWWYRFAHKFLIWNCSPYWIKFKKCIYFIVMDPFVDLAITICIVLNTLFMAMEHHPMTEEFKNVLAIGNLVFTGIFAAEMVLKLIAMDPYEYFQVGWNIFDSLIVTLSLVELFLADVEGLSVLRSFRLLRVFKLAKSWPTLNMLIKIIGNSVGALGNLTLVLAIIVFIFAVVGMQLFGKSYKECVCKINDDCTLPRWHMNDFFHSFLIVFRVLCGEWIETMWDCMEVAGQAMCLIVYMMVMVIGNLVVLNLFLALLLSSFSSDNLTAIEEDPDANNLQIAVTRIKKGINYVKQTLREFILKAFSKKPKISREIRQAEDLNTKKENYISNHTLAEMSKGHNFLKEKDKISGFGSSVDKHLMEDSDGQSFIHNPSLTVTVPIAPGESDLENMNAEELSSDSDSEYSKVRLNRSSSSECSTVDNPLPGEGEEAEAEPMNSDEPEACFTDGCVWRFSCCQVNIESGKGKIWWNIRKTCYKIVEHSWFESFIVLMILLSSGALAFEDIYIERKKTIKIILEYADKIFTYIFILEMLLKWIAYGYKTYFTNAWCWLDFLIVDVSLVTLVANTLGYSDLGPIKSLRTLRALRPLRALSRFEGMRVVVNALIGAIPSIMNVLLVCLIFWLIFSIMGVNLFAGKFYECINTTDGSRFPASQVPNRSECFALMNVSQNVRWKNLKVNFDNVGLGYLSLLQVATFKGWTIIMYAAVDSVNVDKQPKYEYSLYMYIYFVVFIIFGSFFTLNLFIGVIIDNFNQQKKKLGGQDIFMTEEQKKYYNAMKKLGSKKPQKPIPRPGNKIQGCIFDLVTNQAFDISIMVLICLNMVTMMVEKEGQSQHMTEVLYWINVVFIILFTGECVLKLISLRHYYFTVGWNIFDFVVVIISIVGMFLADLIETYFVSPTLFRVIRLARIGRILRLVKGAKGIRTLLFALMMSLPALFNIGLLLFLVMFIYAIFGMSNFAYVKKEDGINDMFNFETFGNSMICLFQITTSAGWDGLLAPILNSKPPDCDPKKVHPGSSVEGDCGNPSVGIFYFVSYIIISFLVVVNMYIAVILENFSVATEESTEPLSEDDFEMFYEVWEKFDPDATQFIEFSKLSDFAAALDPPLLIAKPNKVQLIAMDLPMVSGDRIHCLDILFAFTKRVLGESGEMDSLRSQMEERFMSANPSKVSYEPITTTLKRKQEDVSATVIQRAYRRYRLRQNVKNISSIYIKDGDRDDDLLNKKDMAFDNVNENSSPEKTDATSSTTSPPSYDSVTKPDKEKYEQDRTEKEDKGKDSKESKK
Sequence of hNav1.3 (Q9NY46 whole entry, looked up): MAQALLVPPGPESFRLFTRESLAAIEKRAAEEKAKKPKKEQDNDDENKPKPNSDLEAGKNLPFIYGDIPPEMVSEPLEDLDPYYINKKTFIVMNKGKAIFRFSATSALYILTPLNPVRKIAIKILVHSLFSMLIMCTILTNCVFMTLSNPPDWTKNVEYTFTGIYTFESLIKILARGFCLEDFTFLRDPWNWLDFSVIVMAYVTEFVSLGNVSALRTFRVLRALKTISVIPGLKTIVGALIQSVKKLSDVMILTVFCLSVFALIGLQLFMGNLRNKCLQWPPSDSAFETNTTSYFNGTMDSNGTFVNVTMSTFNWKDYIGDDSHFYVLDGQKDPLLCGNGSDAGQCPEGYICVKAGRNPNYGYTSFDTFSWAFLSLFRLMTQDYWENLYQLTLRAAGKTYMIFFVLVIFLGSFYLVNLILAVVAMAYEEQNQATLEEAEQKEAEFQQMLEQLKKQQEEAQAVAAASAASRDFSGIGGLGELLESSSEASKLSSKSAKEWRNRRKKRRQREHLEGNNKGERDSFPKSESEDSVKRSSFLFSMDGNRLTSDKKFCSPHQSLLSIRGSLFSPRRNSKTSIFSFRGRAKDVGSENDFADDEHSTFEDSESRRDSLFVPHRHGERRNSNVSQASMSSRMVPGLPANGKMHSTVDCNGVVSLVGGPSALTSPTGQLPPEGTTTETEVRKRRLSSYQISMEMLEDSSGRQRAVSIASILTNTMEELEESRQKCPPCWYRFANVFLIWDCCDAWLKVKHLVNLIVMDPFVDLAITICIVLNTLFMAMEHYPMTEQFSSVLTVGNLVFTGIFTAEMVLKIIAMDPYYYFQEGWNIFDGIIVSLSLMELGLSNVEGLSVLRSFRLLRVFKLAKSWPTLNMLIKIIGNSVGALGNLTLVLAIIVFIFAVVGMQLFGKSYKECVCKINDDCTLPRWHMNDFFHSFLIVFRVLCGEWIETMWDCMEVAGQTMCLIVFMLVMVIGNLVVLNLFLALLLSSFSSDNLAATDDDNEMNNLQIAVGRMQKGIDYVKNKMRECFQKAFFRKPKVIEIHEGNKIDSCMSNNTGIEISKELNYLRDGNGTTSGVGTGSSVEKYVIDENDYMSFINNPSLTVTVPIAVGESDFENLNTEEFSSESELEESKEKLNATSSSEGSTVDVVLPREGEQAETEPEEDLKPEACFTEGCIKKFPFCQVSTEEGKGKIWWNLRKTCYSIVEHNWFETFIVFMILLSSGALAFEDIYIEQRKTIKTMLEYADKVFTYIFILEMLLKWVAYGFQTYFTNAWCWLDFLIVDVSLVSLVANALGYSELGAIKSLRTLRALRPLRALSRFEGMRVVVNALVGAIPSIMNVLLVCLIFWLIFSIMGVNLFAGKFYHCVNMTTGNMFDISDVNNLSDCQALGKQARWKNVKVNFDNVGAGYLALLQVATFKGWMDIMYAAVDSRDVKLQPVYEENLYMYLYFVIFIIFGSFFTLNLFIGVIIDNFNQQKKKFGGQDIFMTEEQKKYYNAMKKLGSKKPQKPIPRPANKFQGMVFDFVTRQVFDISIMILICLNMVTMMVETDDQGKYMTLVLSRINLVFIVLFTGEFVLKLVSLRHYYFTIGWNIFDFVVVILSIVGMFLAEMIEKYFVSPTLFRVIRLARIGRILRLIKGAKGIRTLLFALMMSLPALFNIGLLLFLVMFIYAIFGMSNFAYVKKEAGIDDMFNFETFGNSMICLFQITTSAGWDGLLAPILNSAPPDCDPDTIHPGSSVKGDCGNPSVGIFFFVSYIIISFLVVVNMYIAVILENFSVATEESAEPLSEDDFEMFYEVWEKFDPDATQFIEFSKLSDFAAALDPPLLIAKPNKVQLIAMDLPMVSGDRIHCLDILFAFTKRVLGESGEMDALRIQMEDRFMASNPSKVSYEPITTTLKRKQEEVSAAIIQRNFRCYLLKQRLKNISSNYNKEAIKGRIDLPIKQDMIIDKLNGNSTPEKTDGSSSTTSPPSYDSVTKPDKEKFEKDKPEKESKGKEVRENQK

With `CC[C@H](C)[C@@H]1NC(=O)[C@@H]2CSSC[C@@H]3NC(=O)[C@H](C(C)C)NC(=O)[C@H](CC(C)C)NC(=O)[C@H](CC(N)=O)NC(=O)[C@@H]4CCCN4C(=O)[C@H](CCCNC(=N)N)NC(=O)[C@H](CSSC[C@H](NC(=O)[C@@H](N)CC(=O)O)C(=O)N[C@@H](CC(C)C)C(=O)NCC(=O)N[C@@H](Cc4ccccc4)C(=O)N[C@@H](CCSC)C(=O)N[C@@H](CCCNC(=N)N)C(=O)N[C@@H](CCCCN)C(=O)N2)NC(=O)[C@H](CSSC[C@@H](C(=O)N[C@@H](CCCCN)C(=O)N[C@@H](Cc2ccc(O)cc2)C(=O)N[C@H](C(=O)N[C@@H](Cc2ccccc2)C(N)=O)C(C)C)NC(=O)[C@H](Cc2c[nH]c4ccccc24)NC(=O)[C@H](CCCCN)NC(=O)[C@H](Cc2cnc[nH]2)NC(=O)[C@H]([C@@H](C)O)NC(=O)[C@H](CCCNC(=N)N)NC(=O)[C@H](CO)NC3=O)NC(=O)[C@H](CCCCN)NC(=O)[C@H](CC(=O)O)NC(=O)[C@H](CC(N)=O)NC(=O)[C@H](CCC(=O)O)NC(=O)[C@@H]2CCCN2C1=O` [compound 26] (H-DCLGFMRKCIPENDKCCRPNLVCSRTHKWCKYVF-NH2; disulfide 2-17, 9-23, 16-30), the IC50 amounted to 260 nM at hNav1.7, 6450 nM at hNav1.5 (Use) and 190 nM at hNav1.3 (Use).
Turning to `CC[C@H](C)[C@@H]1NC(=O)[C@@H]2CSSC[C@@H]3NC(=O)[C@H](C(C)C)NC(=O)[C@H](CC(C)C)NC(=O)[C@H](CC(N)=O)NC(=O)[C@@H]4CCCN4C(=O)[C@H](CCCNC(=N)N)NC(=O)[C@H](CSSC[C@H](NC(=O)[C@@H](N)CC(=O)O)C(=O)N[C@@H](CC(C)C)C(=O)NCC(=O)N[C@@H](C)C(=O)N[C@@H](CC(C)C)C(=O)N[C@@H](CCCNC(=N)N)C(=O)N[C@@H](CCCCN)C(=O)N2)NC(=O)[C@H](CSSC[C@@H](C(=O)N[C@@H](CCCCN)C(=O)N[C@@H](Cc2ccc(O)cc2)C(=O)N[C@H](C(=O)N[C@@H](Cc2ccccc2)C(=O)O)C(C)C)NC(=O)[C@H](Cc2c[nH]c4ccccc24)NC(=O)[C@H](CCCNC(=N)N)NC(=O)[C@H](Cc2c[nH]cn2)NC(=O)[C@H]([C@@H](C)O)NC(=O)[C@H](CCCNC(=N)N)NC(=O)[C@H](CO)NC3=O)NC(=O)[C@H](CCCCN)NC(=O)[C@H](CC(=O)O)NC(=O)[C@H](CC(C)C)NC(=O)[C@H](CC(=O)O)NC(=O)[C@@H]2CCCN2C1=O` [compound 867] (H-DCLGALRKCIPDLDKCCRPNLVCSRTHRWCKYVF-OH; disulfide 2-17, 9-23, 16-30), the IC50 was greater than 5000 nM at hNav1.7 (setting [1]); greater than 5000 nM at hNav1.5 (use-dependent block, hNav1.5); 4900 nM at hNav1.3 (use-dependent block, hNav1.3).
Regarding `CC[C@H](C)[C@@H]1NC(=O)[C@@H]2CSSC[C@@H]3NC(=O)[C@H](C(C)C)NC(=O)[C@H](CC(C)C)NC(=O)[C@H](CC(N)=O)NC(=O)[C@@H]4CCCN4C(=O)[C@H](CCCNC(=N)N)NC(=O)[C@H](CSSC[C@H](NC(=O)[C@@H](N)CC(=O)O)C(=O)N[C@@H](CC(C)C)C(=O)NCC(=O)N[C@@H](C)C(=O)N[C@@H](Cc4ccccc4)C(=O)N[C@@H](CCCNC(=N)N)C(=O)N[C@@H](CCCCN)C(=O)N2)NC(=O)[C@H](CSSC[C@@H](C(=O)N[C@@H](CCCCN)C(=O)N[C@@H](Cc2ccc(O)cc2)C(=O)N[C@H](C(=O)N[C@@H](Cc2ccccc2)C(=O)O)C(C)C)NC(=O)[C@H](Cc2c[nH]c4ccccc24)NC(=O)[C@H](CCC(=O)O)NC(=O)[C@H](Cc2c[nH]cn2)NC(=O)[C@H]([C@@H](C)O)NC(=O)[C@H](CCCNC(=N)N)NC(=O)[C@H](CO)NC3=O)NC(=O)[C@H](CCCCN)NC(=O)[C@H](CC(=O)O)NC(=O)[C@H](CC(N)=O)NC(=O)[C@H](CC(=O)O)NC(=O)[C@@H]2CCCN2C1=O` [compound 826] (H-DCLGAFRKCIPDNDKCCRPNLVCSRTHEWCKYVF-OH; disulfide 2-17, 9-23, 16-30), the IC50 at hNav1.7 (setting [1]) was greater than 5000 nM; on hNav1.5 (use-dependent block, hNav1.5) it was greater than 5000 nM; at hNav1.3 (use-dependent block, hNav1.3) it was 1800 nM.
In the case of `CC[C@H](C)[C@@H]1NC(=O)[C@@H]2CSSC[C@@H]3NC(=O)[C@H](C(C)C)NC(=O)[C@H](CC(C)C)NC(=O)[C@H](CC(N)=O)NC(=O)[C@@H]4CCCN4C(=O)[C@H](CCCNC(=N)N)NC(=O)[C@H](CSSC[C@H](NC(=O)[C@H](CC(=O)O)NC(=O)[C@H](CO)NC(=O)CN)C(=O)N[C@@H](CC(C)C)C(=O)NCC(=O)N[C@@H](C)C(=O)N[C@@H](Cc4ccccc4)C(=O)N[C@@H](CCCNC(=N)N)C(=O)N[C@@H](CCCCN)C(=O)N2)NC(=O)[C@H](CSSC[C@@H](C(=O)N[C@@H](CCCCN)C(=O)N[C@@H](Cc2ccc(O)cc2)C(=O)N[C@H](C(=O)N[C@@H](Cc2ccccc2)C(=O)N[C@@H](Cc2ccccc2)C(=O)O)C(C)C)NC(=O)[C@H](Cc2c[nH]c4ccccc24)NC(=O)[C@H](CCCNC(=N)N)NC(=O)[C@H](Cc2c[nH]cn2)NC(=O)[C@H]([C@@H](C)O)NC(=O)[C@H](CCCNC(=N)N)NC(=O)[C@H](CO)NC3=O)NC(=O)[C@H](CCCCN)NC(=O)[C@H](CC(=O)O)NC(=O)[C@H](CC(N)=O)NC(=O)[C@H](CC(=O)O)NC(=O)[C@@H]2CCCN2C1=O` [compound 819] (H-GSDCLGAFRKCIPDNDKCCRPNLVCSRTHRWCKYVFF-OH; disulfide 4-19, 11-25, 18-32), the IC50 on hNav1.7 (setting [1]) was 1500 nM; on hNav1.5 (use-dependent block, hNav1.5), greater than 5000 nM; at hNav1.3 (use-dependent block, hNav1.3), 500 nM.
The like results for `CC[C@H](C)[C@@H]1NC(=O)[C@@H]2CSSC[C@@H]3NC(=O)[C@H](C(C)C)NC(=O)[C@H](CC(C)C)NC(=O)[C@H](CC(N)=O)NC(=O)[C@@H]4CCCN4C(=O)[C@H](CCCNC(=N)N)NC(=O)[C@H](CSSC[C@H](NC(=O)[C@@H](N)CC(=O)O)C(=O)N[C@@H](CC(C)C)C(=O)NCC(=O)N[C@@H](Cc4ccccc4)C(=O)N[C@@H](CCSC)C(=O)N[C@@H](CCCNC(=N)N)C(=O)N[C@@H](C)C(=O)N2)NC(=O)[C@H](CSSC[C@@H](C(=O)N[C@@H](CCCCN)C(=O)N[C@@H](Cc2ccc(O)cc2)C(=O)N[C@H](C(=O)N[C@@H](Cc2ccccc2)C(N)=O)C(C)C)NC(=O)[C@H](Cc2c[nH]c4ccccc24)NC(=O)[C@H](CCCCN)NC(=O)[C@H](Cc2cnc[nH]2)NC(=O)[C@H]([C@@H](C)O)NC(=O)[C@H](CCCNC(=N)N)NC(=O)[C@H](CO)NC3=O)NC(=O)[C@H](CCCCN)NC(=O)[C@H](CC(=O)O)NC(=O)[C@H](CC(N)=O)NC(=O)[C@H](CC(=O)O)NC(=O)[C@@H]2CCCN2C1=O` [[Ala8]GpTx-1(1-34)] (H-DCLGFMRACIPDNDKCCRPNLVCSRTHKWCKYVF-NH2; disulfide 2-17, 9-23, 16-30) were, in that order, 490 nM, 16800 nM and 410 nM.
